Results reported in patent US20130183266A1, “COMPOUNDS AND METHODS FOR THE TREATMENT OR PREVENTION OF FLAVIVIRUS INFECTIONS” (Vertex Pharmaceuticals Incorporated, priority 2010, published 2013).

Assays:
[1] = system: HCV replicon (genotype 1b) in Huh7 hepatoma cell line ET; assay: microbe, parasite or virus in culture; assay type: cell-based; details: Hepatitis C virus, Huh-7, 96 h, read-out: HCV-Replicon-1b- IC50
[2] = system: HCV sub-genomic replicon of genotype 1a in replicon cell line W11.8; assay: microbe, parasite or virus in culture; assay type: cell-based; details: Hepatitis C virus, W11.8, 96 h, read-out: HCV-Replicon-ELISA-1a-IC50

SMILES | IC50 [1] [µM] | IC50 [2] [µM]
[2H]c1c([2H])c([2H])c(-c2cc(N(C(=O)C3CCC(C)CC3)[C@H]3CC[C@H](O)CC3)c(C(=O)O)s2)c([2H])c1[2H] (stereo partly drawn) [Compound 1, 3-[(trans-4-Hydroxy-cyclohexyl)-(trans-4-methylcyclohexanecarbonyl)-amino]-5-d5-phenyl-thiophene-2-carboxylic acid] | 0.1 to 1 | 
[2H][C@]1(O)CC[C@H](N(C(=O)C2CCC(C)CC2)c2cc(C#CC(C)(C)C)sc2C(=O)O)CC1 (stereo partly shown) [Compound 3] | < 0.1 | < 0.1
[2H][C@]1(O)CC[C@H](N(C(=O)C2CCC(C)CC2)c2cc(-c3ccccc3)sc2C(=O)O)CC1 (stereo partly shown) [Compound 4] | 0.1 to 1 | 
